Reference: patent US20250144067A1, “PERSONALIZED STARVATION THERAPY FOR CANCER” (Faeth Therapeutics, Inc., priority 2021, published 2025)
Counter-ions that a name gives are not always drawn.

What follows are compounds tested on NCI-H292 lung cancer cells (assay: FDA drug screening, complete media vs cholesterol-free media without statin (TABLE 1)). Conditions: Complete minus Cholesterol-free; greater than 0 enhanced anti-cancer activity, about 0 neutral, below 0 antagonists.
Type: cell-based, human

Question: CO/N=C(\C(=O)N[C@@H]1C(=O)N2C(C(=O)[O-])=C(C[N+]3(C)CCCC3)CS[C@H]12)c1csc(N)n1 [Cefepime (Dihydrochloride Monohydrate)] was tested. Which Difference did it give?
Answer: Its Difference is −0.52.

Question: NCc1ccccc1CC(=O)N[C@@H]1C(=O)N2C(C(=O)O)=C(CSc3nnnn3CC(=O)O)CS[C@H]12 [Ceforanide] was tested. Which Difference did it give?
Answer: The Difference was −0.76.

Question: With CO/N=C(\C(=O)N[C@@H]1C(=O)N2C(C(=O)O)=C(COC(C)=O)CS[C@H]12)c1csc(N)n1 [Cefotaxime] as the compound, how does the Difference read?
Answer: The Difference was −0.57.

Question: Which Difference does the source give for CO[C@@]1(NC(=O)Cc2cccs2)C(=O)N2C(C(=O)O)=C(COC(N)=O)CS[C@@H]21 [Cefoxitin (sodium)] here?
Answer: Its Difference is −0.48.

Question: With CCO/N=C(\C(=O)N[C@@H]1C(=O)N2C(C(=O)[O-])=C(Sc3nc(-c4cc[n+](C)cc4)cs3)CS[C@H]12)c1nsc(NP(=O)(O)O)n1 [Ceftaroline fosamil] as the compound, how does the Difference read?
Answer: The Difference was −0.71.

Same assay, conditions: NCI-H292 cells in cholesterol-free media without statin

Question: How did the Cholesterol-free turn out when CO/N=C(\C(=O)N[C@@H]1C(=O)N2C(C(=O)[O-])=C(C[N+]3(C)CCCC3)CS[C@H]12)c1csc(N)n1 [Cefepime (Dihydrochloride Monohydrate)] was run?
Answer: Its Cholesterol-free is 1.209.

Question: How did the Cholesterol-free turn out when NCc1ccccc1CC(=O)N[C@@H]1C(=O)N2C(C(=O)O)=C(CSc3nnnn3CC(=O)O)CS[C@H]12 [Ceforanide] was run?
Answer: The Cholesterol-free was 1.736.

Question: With CO/N=C(\C(=O)N[C@@H]1C(=O)N2C(C(=O)O)=C(COC(C)=O)CS[C@H]12)c1csc(N)n1 [Cefotaxime] as the compound, how does the Cholesterol-free read?
Answer: Its Cholesterol-free is 1.225.

Question: For CO[C@@]1(NC(=O)Cc2cccs2)C(=O)N2C(C(=O)O)=C(COC(N)=O)CS[C@@H]21 [Cefoxitin (sodium)], which Cholesterol-free is on record?
Answer: The Cholesterol-free was 1.299.

Question: How did the Cholesterol-free turn out when CCO/N=C(\C(=O)N[C@@H]1C(=O)N2C(C(=O)[O-])=C(Sc3nc(-c4cc[n+](C)cc4)cs3)CS[C@H]12)c1nsc(NP(=O)(O)O)n1 [Ceftaroline fosamil] was run?
Answer: Its Cholesterol-free is 1.53.

Same assay, conditions: NCI-H292 cells in complete media

Question: For CO/N=C(\C(=O)N[C@@H]1C(=O)N2C(C(=O)[O-])=C(C[N+]3(C)CCCC3)CS[C@H]12)c1csc(N)n1 [Cefepime (Dihydrochloride Monohydrate)], which Complete is on record?
Answer: Its Complete is 0.6874.

Question: NCc1ccccc1CC(=O)N[C@@H]1C(=O)N2C(C(=O)O)=C(CSc3nnnn3CC(=O)O)CS[C@H]12 [Ceforanide] was tested. Which Complete did it give?
Answer: The Complete was 0.9794.

Question: For CO/N=C(\C(=O)N[C@@H]1C(=O)N2C(C(=O)O)=C(COC(C)=O)CS[C@H]12)c1csc(N)n1 [Cefotaxime], which Complete is on record?
Answer: The Complete was 0.66.

Question: For CO[C@@]1(NC(=O)Cc2cccs2)C(=O)N2C(C(=O)O)=C(COC(N)=O)CS[C@@H]21 [Cefoxitin (sodium)], which Complete is on record?
Answer: Its Complete is 0.8161.

Question: How did the Complete turn out when CCO/N=C(\C(=O)N[C@@H]1C(=O)N2C(C(=O)[O-])=C(Sc3nc(-c4cc[n+](C)cc4)cs3)CS[C@H]12)c1nsc(NP(=O)(O)O)n1 [Ceftaroline fosamil] was run?
Answer: The Complete was 0.8244.

Same assay, conditions: NCI-H292 cells, cholesterol-free media without statin

Question: With CO/N=C(\C(=O)N[C@@H]1C(=O)N2C(C(=O)O)=C(COC(C)=O)CS[C@H]12)c1csc(N)n1 [Cefotaxime (sodium salt)] as the compound, how does the Cholesterol-free read?
Answer: Its Cholesterol-free is 1.268.

Same assay, conditions: NCI-H292 cells, complete media

Question: CO/N=C(\C(=O)N[C@@H]1C(=O)N2C(C(=O)O)=C(COC(C)=O)CS[C@H]12)c1csc(N)n1 [Cefotaxime (sodium salt)] was tested. Which Complete did it give?
Answer: The Complete was 0.9622.

Same assay, conditions: complete vs cholesterol-free media; greater than 0 enhanced anti-cancer activity, about 0 neutral, below 0 antagonists

Question: For CO/N=C(\C(=O)N[C@@H]1C(=O)N2C(C(=O)O)=C(COC(C)=O)CS[C@H]12)c1csc(N)n1 [Cefotaxime (sodium salt)], which Difference is on record?
Answer: Its Difference is −0.31.

What follows are compounds tested on NCI-H292 lung cancer cells (assay: FDA drug screening, complete media vs cholesterol-free media with simvastatin (TABLE 2)). Conditions: NCI-H292 cells, FDA drug library screen, cholesterol-free media with simvastatin 0.04 μM.
Type: cell-based, human

Question: For CO/N=C(\C(=O)N[C@@H]1C(=O)N2C(C(=O)[O-])=C(C[N+]3(C)CCCC3)CS[C@H]12)c1csc(N)n1 [Cefepime (Dihydrochloride Monohydrate)], which “Cholesterol-free media + simvastatin (0.04 μM)” value is on record?
Answer: The value was 1.15.

Question: Which “Cholesterol-free media + simvastatin (0.04 μM)” value does the source give for NCc1ccccc1CC(=O)N[C@@H]1C(=O)N2C(C(=O)O)=C(CSc3nnnn3CC(=O)O)CS[C@H]12 [Ceforanide] here?
Answer: The value was 1.034.

Question: Which “Cholesterol-free media + simvastatin (0.04 μM)” value does the source give for CO/N=C(\C(=O)N[C@@H]1C(=O)N2C(C(=O)O)=C(COC(C)=O)CS[C@H]12)c1csc(N)n1 [Cefotaxime (sodium salt)] here?
Answer: Its value is 1.284.

Question: Which “Cholesterol-free media + simvastatin (0.04 μM)” value does the source give for CO/N=C(\C(=O)N[C@@H]1C(=O)N2C(C(=O)O)=C(COC(C)=O)CS[C@H]12)c1csc(N)n1 [Cefotaxime] here?
Answer: Its value is 0.9945.

Question: CCO/N=C(\C(=O)N[C@@H]1C(=O)N2C(C(=O)[O-])=C(Sc3nc(-c4cc[n+](C)cc4)cs3)CS[C@H]12)c1nsc(NP(=O)(O)O)n1 [Ceftaroline fosamil] was tested. Which “Cholesterol-free media + simvastatin (0.04 μM)” value did it give?
Answer: Its value is 1.027.

Same assay, conditions: NCI-H292 cells, FDA drug library screen, complete media

Question: With CO/N=C(\C(=O)N[C@@H]1C(=O)N2C(C(=O)[O-])=C(C[N+]3(C)CCCC3)CS[C@H]12)c1csc(N)n1 [Cefepime (Dihydrochloride Monohydrate)] as the compound, how does the “Complete Media” value read?
Answer: Its value is 1.537.

Question: NCc1ccccc1CC(=O)N[C@@H]1C(=O)N2C(C(=O)O)=C(CSc3nnnn3CC(=O)O)CS[C@H]12 [Ceforanide] was tested. Which “Complete Media” value did it give?
Answer: Its value is 1.331.

Question: For CO/N=C(\C(=O)N[C@@H]1C(=O)N2C(C(=O)O)=C(COC(C)=O)CS[C@H]12)c1csc(N)n1 [Cefotaxime (sodium salt)], which “Complete Media” value is on record?
Answer: The value was 1.139.

Question: CO/N=C(\C(=O)N[C@@H]1C(=O)N2C(C(=O)O)=C(COC(C)=O)CS[C@H]12)c1csc(N)n1 [Cefotaxime] was tested. Which “Complete Media” value did it give?
Answer: Its value is 0.8998.

Question: Which “Complete Media” value does the source give for CCO/N=C(\C(=O)N[C@@H]1C(=O)N2C(C(=O)[O-])=C(Sc3nc(-c4cc[n+](C)cc4)cs3)CS[C@H]12)c1nsc(NP(=O)(O)O)n1 [Ceftaroline fosamil] here?
Answer: The value was 0.9313.

Same assay, conditions: NCI-H292 cells, cholesterol-free media with simvastatin 0.04 μM; FDA drug library screen (TABLE 2)

Question: Which “Cholesterol-free media + simvastatin (0.04 μM)” value does the source give for CO[C@@]1(NC(=O)Cc2cccs2)C(=O)N2C(C(=O)O)=C(COC(N)=O)CS[C@@H]21 [Cefoxitin (sodium)] here?
Answer: Its value is 0.9202.

Same assay, conditions: NCI-H292 cells, complete media; FDA drug library screen (TABLE 2)

Question: For CO[C@@]1(NC(=O)Cc2cccs2)C(=O)N2C(C(=O)O)=C(COC(N)=O)CS[C@@H]21 [Cefoxitin (sodium)], which “Complete Media” value is on record?
Answer: The value was 0.8818.

Same assay, conditions: complete media minus cholesterol-free media + simvastatin (0.04 μM); >0 enhanced anti-cancer activity, about 0 neutral, <0 antagonist

Question: CO[C@@]1(NC(=O)Cc2cccs2)C(=O)N2C(C(=O)O)=C(COC(N)=O)CS[C@@H]21 [Cefoxitin (sodium)] was tested. Which Difference did it give?
Answer: Its Difference is −0.04.

Same assay, conditions: complete media minus cholesterol-free media + simvastatin; >0 enhanced anti-cancer activity, about 0 neutral, <0 antagonist

Question: With CO/N=C(\C(=O)N[C@@H]1C(=O)N2C(C(=O)[O-])=C(C[N+]3(C)CCCC3)CS[C@H]12)c1csc(N)n1 [Cefepime (Dihydrochloride Monohydrate)] as the compound, how does the Difference read?
Answer: Its Difference is 0.39.

Question: NCc1ccccc1CC(=O)N[C@@H]1C(=O)N2C(C(=O)O)=C(CSc3nnnn3CC(=O)O)CS[C@H]12 [Ceforanide] was tested. Which Difference did it give?
Answer: The Difference was 0.30.

Same assay, conditions: complete media vs cholesterol-free media + simvastatin (0.04 μM); >0 enhanced anti-cancer activity, about 0 neutral, <0 antagonist

Question: For CO/N=C(\C(=O)N[C@@H]1C(=O)N2C(C(=O)O)=C(COC(C)=O)CS[C@H]12)c1csc(N)n1 [Cefotaxime (sodium salt)], which Difference is on record?
Answer: The Difference was −0.15.

Question: CO/N=C(\C(=O)N[C@@H]1C(=O)N2C(C(=O)O)=C(COC(C)=O)CS[C@H]12)c1csc(N)n1 [Cefotaxime] was tested. Which Difference did it give?
Answer: The Difference was −0.09.

Question: For CCO/N=C(\C(=O)N[C@@H]1C(=O)N2C(C(=O)[O-])=C(Sc3nc(-c4cc[n+](C)cc4)cs3)CS[C@H]12)c1nsc(NP(=O)(O)O)n1 [Ceftaroline fosamil], which Difference is on record?
Answer: The Difference was −0.10.
